This is an account of results in patent US20110060000A1, “ACRIDINE ANALOGS IN THE TREATMENT OF GLIOMAS” (priority 2009, published 2011).

The subject of series [1] is subcutaneous U87-MG gliomas. Kind of series: Mice bearing subcutaneous U87-MG gliomas. The class given is in vivo. The text has this: The estimated survival prolongment is 14 days in mice life which compares at 851 days in human life based on a life expectancy of 18 months in mice and 90 years in human. Also, since one animal was tumor-free at the end of the treatment that translates in an expected 16% cure rate.
FIG. 29a graphs % tumor weight/control as a function of days after implantation. […] Such a profile indicates effectiveness in vivo for both treatment and for prevention of relapse. FIG. 29b graphs % animal survival as a function of days after implantation. […] Such a profile indicates effectiveness in vivo for both treatment and for prevention of relapse.
Mice bearing subcutaneous gliomas were received daily oral administration of 200 mg/kg of quinacrine. […] In FIG. 29 is shown the effect of 100 mg/kg of quinacrine and 10 mg/kg 9-aminoacridine in Mice bearing subcutaneous U87-MG gliomas.

Series [2] relates to U87-MG skin xenograft tumor explants. Kind of series: U87-MG skin xenograft tumor explants, ERSR markers. The class given is in vivo, mice. To be noted: samples after 7 and 21 days. The text has this: U7 represents vehicle treated sample after 7 days. U21 represents vehicle treated sample after 21 days. Q7 represents quinacridine-treated sample after 7 days. Q21 represents quinacridine-treated sample after 21 days. 9AA-7 represents 9-aminoacridine-treated sample after 7 days. 9AA-21 represents 9-aminoacridine-treated sample after 21 days.

For the next series, the system named is tumor cells. Conditions: in vitro and in vivo; cited from earlier work.
The next series relates to p53. To be noted: cited from earlier work.
Another series concerns NF-κB. Conditions: tumor cells; cited from earlier work.
Another series relates to DNA. To be noted: cited from earlier work.
In the next series the test system is gliomas. To be noted: in association with established anti-glioma medications; cited from earlier work.
Where [3] appears, read: full dose over about 45 days, Q oral, 9-AA I.P.
Where [4] appears, read: half dose (maintenance dose) up to about 60 days.

The compound `Nc1c2ccccc2nc2ccccc12` [9-aminoacridine] gave a cure rate in series [1] (10 mg/kg 9-aminoacridine) of 77%. The antiglioma action result in series [1] (100 mg/kg of quinacrine and 10 mg/kg 9-aminoacridine) was “powerful antiglioma action”. Moreover, in series [1] (9-AA I.P.), the “tumor once survival rate stabilized” value is reported as “no sign of tumor”. Moreover, in series [1] (setting [3]), the “animal survival rate compared to control” value is recorded as “increased survival rate” and the “tumor size compared to control” value is reported as “decrease in tumor size”. Also, in series [1] (setting [4]), the “animal survival rate compared to control” value was “survival rate was high” and the “tumor size compared to control” value was “tumor size remained relatively constant”. In series [2], the “ERSR activation and GRP78 target protein in tumor explants” value is “activaiton of ERSR and changes in GRP78 target protein”; the “caspase 12 activation in tumor explants” value is given as “activation of caspase 12 is evident”. In addition, in the series on tumor cells, the “toxicity to tumor versus normal cells” value is reported as “more toxic to tumor than to normal cells”. The “p53 activation and p53-dependent killing of tumor cell types” value with p53 is “capable of p53 activation and p53-dependent killing”. Also, the “stimulated and basal constitutive NF-κB activity” value with NF-κB was “block stimulated NF-κB activity and also effectively reduce basal levels of constitutive NF-κB activity”. Besides, the DNA damaging activity result in the series on DNA is on record as “not found to show DNA damaging activity”.

Consider `CCN(CC)CCCC(C)Nc1ccnc2cc(Cl)ccc12` (centres unmarked) [Chloroquine], for which, in the series on gliomas, the patient survival entry was “patient survival was significantly prolonged”.
